{"source": "ChEMBL document CHEMBL1697781", "about": "“Assessment of the health effects of chemicals in humans: II. Construction of an adverse effects database for QSAR modeling” (Curr Drug Discov Technol, 2004); on GGT Increase - Index Value: reference of the scale not given here; on LDH Increase - Index Value: reference of the scale not given here", "settings_in_all_cases": "human", "key": {"Hepatotoxicity [1]": {"system": "Hepatotoxicity", "assay": "FDA HLAED, liver enzyme composite activity"}, "Hepatotoxicity [2]": {"system": "Hepatotoxicity", "assay": "FDA HLAED, alkaline phosphatase increase"}, "Hepatotoxicity [3]": {"system": "Hepatotoxicity", "assay": "FDA HLAED, serum glutamic oxaloacetic transaminase (SGOT) increase"}, "Hepatotoxicity [4]": {"system": "Hepatotoxicity", "assay": "FDA HLAED, serum glutamic pyruvic transaminase (SGPT) increase"}, "Hepatotoxicity [5]": {"system": "Hepatotoxicity", "assay": "FDA HLAED, lactate dehydrogenase (LDH) increase"}, "Hepatotoxicity [6]": {"system": "Hepatotoxicity", "assay": "FDA HLAED, gamma-glutamyl transferase (GGT) increase"}}}
{"molecule": "Nc1cc(Cl)c(N=C2NCCN2)c(Cl)c1", "note": "[APRACLONIDINE]", "values": [{"measurement": "Composite Activity - Active", "setting": "Hepatotoxicity [1]", "value": 0}, {"measurement": "Composite Activity - Marginal", "setting": "Hepatotoxicity [1]", "value": 0}, {"measurement": "Composite Activity - Score", "setting": "Hepatotoxicity [1]", "value": "Inactive"}, {"measurement": "Alkaline Phosphatase Increase - Activity Score", "setting": "Hepatotoxicity [2]", "value": "Inactive"}, {"measurement": "Alkaline Phosphatase Increase - Index Value", "setting": "Hepatotoxicity [2]", "value": 0}, {"measurement": "Alkaline Phosphatase Increase - Number of Reports", "setting": "Hepatotoxicity [2]", "value": "< 4"}, {"measurement": "SGOT Increase - Activity Score", "setting": "Hepatotoxicity [3]", "value": "Inactive"}, {"measurement": "SGOT Increase - Index Value", "setting": "Hepatotoxicity [3]", "value": 0}, {"measurement": "SGOT Increase - Number of Reports", "setting": "Hepatotoxicity [3]", "value": "< 4"}, {"measurement": "SGPT Increase - Activity Score", "setting": "Hepatotoxicity [4]", "value": "Inactive"}, {"measurement": "SGPT Increase - Index Value", "setting": "Hepatotoxicity [4]", "value": 0}, {"measurement": "SGPT Increase - Number of Reports", "setting": "Hepatotoxicity [4]", "value": "< 4"}, {"measurement": "LDH Increase - Activity Score", "setting": "Hepatotoxicity [5]", "value": "Inactive"}, {"measurement": "LDH Increase - Index Value", "setting": "Hepatotoxicity [5]", "value": 0}, {"measurement": "LDH Increase - Number of Reports", "setting": "Hepatotoxicity [5]", "value": "< 4"}, {"measurement": "GGT Increase - Activity Score", "setting": "Hepatotoxicity [6]", "value": "Inactive"}, {"measurement": "GGT Increase - Index Value", "setting": "Hepatotoxicity [6]", "value": 0}, {"measurement": "GGT Increase - Number of Reports", "setting": "Hepatotoxicity [6]", "value": "< 4"}]}
{"molecule": "COc1ccc(CCN2CCC(Nc3nc4ccccc4n3Cc3ccc(F)cc3)CC2)cc1", "note": "[ASTEMIZOLE]", "values": [{"measurement": "Composite Activity - Active", "setting": "Hepatotoxicity [1]", "value": 0}, {"measurement": "Composite Activity - Marginal", "setting": "Hepatotoxicity [1]", "value": 0}, {"measurement": "Composite Activity - Score", "setting": "Hepatotoxicity [1]", "value": "Inactive"}, {"measurement": "Alkaline Phosphatase Increase - Activity Score", "setting": "Hepatotoxicity [2]", "value": "Inactive"}, {"measurement": "Alkaline Phosphatase Increase - Index Value", "setting": "Hepatotoxicity [2]", "value": 1.2}, {"measurement": "Alkaline Phosphatase Increase - Number of Reports", "setting": "Hepatotoxicity [2]", "value": ">= 4"}, {"measurement": "SGOT Increase - Activity Score", "setting": "Hepatotoxicity [3]", "value": "Inactive"}, {"measurement": "SGOT Increase - Index Value", "setting": "Hepatotoxicity [3]", "value": 2.6}, {"measurement": "SGOT Increase - Number of Reports", "setting": "Hepatotoxicity [3]", "value": ">= 4"}, {"measurement": "SGPT Increase - Activity Score", "setting": "Hepatotoxicity [4]", "value": "Inactive"}, {"measurement": "SGPT Increase - Index Value", "setting": "Hepatotoxicity [4]", "value": 2.8}, {"measurement": "SGPT Increase - Number of Reports", "setting": "Hepatotoxicity [4]", "value": ">= 4"}, {"measurement": "LDH Increase - Activity Score", "setting": "Hepatotoxicity [5]", "value": "Inactive"}, {"measurement": "LDH Increase - Index Value", "setting": "Hepatotoxicity [5]", "value": 0.4}, {"measurement": "LDH Increase - Number of Reports", "setting": "Hepatotoxicity [5]", "value": "< 4"}, {"measurement": "GGT Increase - Activity Score", "setting": "Hepatotoxicity [6]", "value": "Inactive"}, {"measurement": "GGT Increase - Index Value", "setting": "Hepatotoxicity [6]", "value": 1.4}, {"measurement": "GGT Increase - Number of Reports", "setting": "Hepatotoxicity [6]", "value": ">= 4"}]}
{"molecule": "CC(C)NCC(O)COc1ccc(CC(N)=O)cc1", "note": "(stereo not given) [ATENOLOL]", "values": [{"measurement": "Composite Activity - Active", "setting": "Hepatotoxicity [1]; Liver", "value": 0}, {"measurement": "Composite Activity - Marginal", "setting": "Hepatotoxicity [1]; Liver", "value": 0}, {"measurement": "Composite Activity - Score", "setting": "Hepatotoxicity [1]; Liver", "value": "Inactive"}, {"measurement": "Alkaline Phosphatase Increase - Activity Score", "setting": "Hepatotoxicity [2]", "value": "Inactive"}, {"measurement": "Alkaline Phosphatase Increase - Index Value", "setting": "Hepatotoxicity [2]", "value": 0.1}, {"measurement": "Alkaline Phosphatase Increase - Number of Reports", "setting": "Hepatotoxicity [2]", "value": "< 4"}, {"measurement": "SGOT Increase - Activity Score", "setting": "Hepatotoxicity [3]", "value": "Inactive"}, {"measurement": "SGOT Increase - Index Value", "setting": "Hepatotoxicity [3]", "value": 0.5}, {"measurement": "SGOT Increase - Number of Reports", "setting": "Hepatotoxicity [3]", "value": ">= 4"}, {"measurement": "SGPT Increase - Activity Score", "setting": "Hepatotoxicity [4]", "value": "Inactive"}, {"measurement": "SGPT Increase - Index Value", "setting": "Hepatotoxicity [4]", "value": 0.3}, {"measurement": "SGPT Increase - Number of Reports", "setting": "Hepatotoxicity [4]", "value": ">= 4"}, {"measurement": "LDH Increase - Activity Score", "setting": "Hepatotoxicity [5]", "value": "Inactive"}, {"measurement": "LDH Increase - Index Value", "setting": "Hepatotoxicity [5]", "value": 0.1}, {"measurement": "LDH Increase - Number of Reports", "setting": "Hepatotoxicity [5]", "value": "< 4"}, {"measurement": "GGT Increase - Activity Score", "setting": "Hepatotoxicity [6]", "value": "Inactive"}, {"measurement": "GGT Increase - Index Value", "setting": "Hepatotoxicity [6]", "value": 0}, {"measurement": "GGT Increase - Number of Reports", "setting": "Hepatotoxicity [6]", "value": "< 4"}]}
{"molecule": "CC(C)c1c(C(=O)Nc2ccccc2)c(-c2ccccc2)c(-c2ccc(F)cc2)n1CC[C@@H](O)C[C@@H](O)CC(=O)O", "note": "[ATORVASTATIN]", "values": [{"measurement": "Composite Activity - Active", "setting": "Hepatotoxicity [1]; Liver", "value": 3}, {"measurement": "Composite Activity - Marginal", "setting": "Hepatotoxicity [1]; Liver", "value": 0}, {"measurement": "Composite Activity - Score", "setting": "Hepatotoxicity [1]; Liver", "value": "Active"}, {"measurement": "Alkaline Phosphatase Increase - Activity Score", "setting": "Hepatotoxicity [2]", "value": "Inactive"}, {"measurement": "Alkaline Phosphatase Increase - Index Value", "setting": "Hepatotoxicity [2]", "value": 1.7}, {"measurement": "Alkaline Phosphatase Increase - Number of Reports", "setting": "Hepatotoxicity [2]", "value": ">= 4"}, {"measurement": "SGOT Increase - Activity Score", "setting": "Hepatotoxicity [3]", "value": "Active"}, {"measurement": "SGOT Increase - Index Value", "setting": "Hepatotoxicity [3]", "value": 6.5}, {"measurement": "SGOT Increase - Number of Reports", "setting": "Hepatotoxicity [3]", "value": ">= 4"}, {"measurement": "SGPT Increase - Activity Score", "setting": "Hepatotoxicity [4]", "value": "Active"}, {"measurement": "SGPT Increase - Index Value", "setting": "Hepatotoxicity [4]", "value": 7.3}, {"measurement": "SGPT Increase - Number of Reports", "setting": "Hepatotoxicity [4]", "value": ">= 4"}, {"measurement": "LDH Increase - Activity Score", "setting": "Hepatotoxicity [5]", "value": "Inactive"}, {"measurement": "LDH Increase - Index Value", "setting": "Hepatotoxicity [5]", "value": 2.5}, {"measurement": "LDH Increase - Number of Reports", "setting": "Hepatotoxicity [5]", "value": ">= 4"}, {"measurement": "GGT Increase - Activity Score", "setting": "Hepatotoxicity [6]", "value": "Active"}, {"measurement": "GGT Increase - Index Value", "setting": "Hepatotoxicity [6]", "value": 6.2}, {"measurement": "GGT Increase - Number of Reports", "setting": "Hepatotoxicity [6]", "value": ">= 4"}]}
{"molecule": "O=C1C(O)=C([C@H]2CC[C@H](c3ccc(Cl)cc3)CC2)C(=O)c2ccccc21", "note": "[ATOVAQUONE]", "values": [{"measurement": "Composite Activity - Active", "setting": "Hepatotoxicity [1]", "value": 0}, {"measurement": "Composite Activity - Marginal", "setting": "Hepatotoxicity [1]", "value": 0}, {"measurement": "Composite Activity - Score", "setting": "Hepatotoxicity [1]", "value": "Inactive"}, {"measurement": "Alkaline Phosphatase Increase - Activity Score", "setting": "Hepatotoxicity [2]", "value": "Inactive"}, {"measurement": "Alkaline Phosphatase Increase - Index Value", "setting": "Hepatotoxicity [2]", "value": 0}, {"measurement": "Alkaline Phosphatase Increase - Number of Reports", "setting": "Hepatotoxicity [2]", "value": "< 4"}, {"measurement": "SGOT Increase - Activity Score", "setting": "Hepatotoxicity [3]", "value": "Inactive"}, {"measurement": "SGOT Increase - Index Value", "setting": "Hepatotoxicity [3]", "value": 18.2}, {"measurement": "SGOT Increase - Number of Reports", "setting": "Hepatotoxicity [3]", "value": "< 4"}, {"measurement": "SGPT Increase - Activity Score", "setting": "Hepatotoxicity [4]", "value": "Inactive"}, {"measurement": "SGPT Increase - Index Value", "setting": "Hepatotoxicity [4]", "value": 18.2}, {"measurement": "SGPT Increase - Number of Reports", "setting": "Hepatotoxicity [4]", "value": "< 4"}, {"measurement": "LDH Increase - Activity Score", "setting": "Hepatotoxicity [5]", "value": "Inactive"}, {"measurement": "LDH Increase - Index Value", "setting": "Hepatotoxicity [5]", "value": 9.1}, {"measurement": "LDH Increase - Number of Reports", "setting": "Hepatotoxicity [5]", "value": "< 4"}, {"measurement": "GGT Increase - Activity Score", "setting": "Hepatotoxicity [6]", "value": "Inactive"}, {"measurement": "GGT Increase - Index Value", "setting": "Hepatotoxicity [6]", "value": 0}, {"measurement": "GGT Increase - Number of Reports", "setting": "Hepatotoxicity [6]", "value": "< 4"}]}
